Species on record: Rattus norvegicus
Test: Open TG-GATES - Regimen: Daily Repeat
Format: toxicity, organism-based, Sprague-Dawley
Design: regimen Daily Repeat, gender Male, age 6 weeks
Settings: in vivo, po, route gavage; for TP / gamma-GTP / ALP / ALT / AST / BUN / CRE / DBIL / GLC / IP / K / LDH / Na / PL / RALB / TBIL / TC / TG: tissue Plasma; for APTT / Bas / Eos / Fbg / Ht / Lym / MCH / MCHC / MCV / Mono / Neu / Plat / RBC / Ret / WBC: tissue Blood
[1] = 45 mg/kg, […], dose level Low, time 28 day
[2] = 150 mg/kg, 72 h, dose level Middle, time 3 day
[3] = 150 mg/kg, […], dose level Middle, time 7 day
[4] = 150 mg/kg, […], dose level Middle, time 14 day
[5] = 150 mg/kg, […], dose level Middle, time 28 day
[6] = 450 mg/kg, 72 h, dose level High, time 3 day
[7] = 450 mg/kg, […], dose level High, time 7 day
[8] = 450 mg/kg, […], dose level High, time 14 day
[9] = 450 mg/kg, […], dose level High, time 28 day

**Q.** What does the source list for `CCCC(CCC)C(=O)O` [VALPROIC ACID]?
**A.** TP [1]: 5.9 g/dL; gamma-GTP [1]: 0.6 IU/L; TERMINAL_BW [2]: 227 g; APTT [2]: 19.8 s; Bas [2]: 0%; Eos [2]: 1%; Fbg [2]: 219.8 mg/dL; Ht [2]: 38.6%; Lym [2]: 78%; MCH [2]: 21.6 pg; MCHC [2]: 34.3%; MCV [2]: 62.9 fL; Mono [2]: 3.8%; Neu [2]: 17%; Plat [2]: 140.1 x10_4/uL; RBC [2]: 614.2 x10_4/ul; Ret [2]: 6.8%; WBC [2]: 106.9 x10_2/uL; ALP [2]: 920.6 IU/L; ALT [2]: 40 IU/L; AST [2]: 73.6 IU/L; BUN [2]: 16.2 mg/dL; CRE [2]: 0.4 mg/dL; DBIL [2]: 0.074 mg/dL; GLC [2]: 211.4 mg/dL; IP [2]: 7.9 mg/dL; K [2]: 3.8 meq/L; LDH [2]: 179.2 IU/L; Na [2]: 141.4 meq/L; PL [2]: 148.6 mg/dL; RALB [2]: 3.3 g/dL; TBIL [2]: 0.1 mg/dL; TC [2]: 76.8 mg/dL; TG [2]: 73 mg/dL; TP [2]: 5.4 g/dL; gamma-GTP [2]: 1.2 IU/L; TERMINAL_BW [3]: 255.5 g; TERMINAL_BW [4]: 311.1 g; TERMINAL_BW [5]: 400.1 g; APTT [3]: 19.5 s; Bas [3]: 0%; Eos [3]: 1.2%; Fbg [3]: 219.6 mg/dL; Ht [3]: 40.1%; Lym [3]: 81%; MCH [3]: 20.8 pg; MCHC [3]: 33.9%; MCV [3]: 61.3 fL; Mono [3]: 3.4%; Plat [3]: 129.5 x10_4/uL; RBC [3]: 655 x10_4/ul; Ret [3]: 5.7%; WBC [3]: 106 x10_2/uL; APTT [4]: 18.7 s; Bas [4]: 0%; Eos [4]: 1%; Fbg [4]: 216.8 mg/dL; Ht [4]: 42.3%; Lym [4]: 83.2%; MCH [4]: 20.6 pg; MCHC [4]: 35%; MCV [4]: 58.9 fL; Mono [4]: 2.6%; Neu [4]: 13.2%; Plat [4]: 108.8 x10_4/uL; RBC [4]: 720 x10_4/ul; Ret [4]: 4%; WBC [4]: 93.8 x10_2/uL; APTT [5]: 19.7 s; Bas [5]: 0%; Eos [5]: 1.4%; Fbg [5]: 214.2 mg/dL; Ht [5]: 42.1%; Lym [5]: 83.2%; MCH [5]: 19 pg; MCHC [5]: 35.2%; MCV [5]: 53.9 fL; Mono [5]: 2.6%; Neu [5]: 12.4%; Plat [5]: 116.1 x10_4/uL; RBC [5]: 781.6 x10_4/ul; Ret [5]: 2.3%; WBC [5]: 89.2 x10_2/uL; ALP [3]: 816 IU/L; ALT [3]: 29.8 IU/L; AST [3]: 59.2 IU/L; BUN [3]: 15.4 mg/dL; CRE [3]: 0.4 mg/dL; DBIL [3]: 0.078 mg/dL; GLC [3]: 220.6 mg/dL; IP [3]: 7.2 mg/dL; K [3]: 3.7 meq/L; LDH [3]: 194.4 IU/L; Na [3]: 140.6 meq/L; RALB [3]: 3.4 g/dL; TBIL [3]: 0.1 mg/dL; TC [3]: 69.4 mg/dL; TG [3]: 109.4 mg/dL; TP [3]: 5.6 g/dL; gamma-GTP [3]: 1.4 IU/L; ALP [4]: 877.8 IU/L; ALT [4]: 34.4 IU/L; AST [4]: 64.2 IU/L; BUN [4]: 16.6 mg/dL; CRE [4]: 0.4 mg/dL; DBIL [4]: 0.082 mg/dL; GLC [4]: 218.2 mg/dL; IP [4]: 7.9 mg/dL; K [4]: 3.8 meq/L; LDH [4]: 176.8 IU/L; Na [4]: 140.4 meq/L; PL [4]: 153.2 mg/dL; RALB [4]: 3.4 g/dL; TBIL [4]: 0.1 mg/dL; TC [4]: 69.4 mg/dL; TG [4]: 123 mg/dL; TP [4]: 5.8 g/dL; gamma-GTP [4]: 0.8 IU/L; ALP [5]: 729.4 IU/L; ALT [5]: 35 IU/L; AST [5]: 65 IU/L; BUN [5]: 17.6 mg/dL; CRE [5]: 0.4 mg/dL; DBIL [5]: 0.1 mg/dL; GLC [5]: 208.2 mg/dL; IP [5]: 6.7 mg/dL; K [5]: 3.9 meq/L; LDH [5]: 178.4 IU/L; Na [5]: 141 meq/L; PL [5]: 142.4 mg/dL; RALB [5]: 3.5 g/dL; TBIL [5]: 0.2 mg/dL; TC [5]: 66.6 mg/dL; TG [5]: 130.4 mg/dL; TP [5]: 6.1 g/dL; gamma-GTP [5]: 0.6 IU/L; TERMINAL_BW [6]: 225.2 g; APTT [6]: 19.4 s; Bas [6]: 0%; Eos [6]: 1%; Fbg [6]: 213.4 mg/dL; Ht [6]: 38.5%; Lym [6]: 79.2%; MCH [6]: 21.5 pg; MCHC [6]: 34.4%; MCV [6]: 62.4 fL; Mono [6]: 2.8%; Neu [6]: 16.4%; Plat [6]: 131.5 x10_4/uL; RBC [6]: 618.2 x10_4/ul; Ret [6]: 5.1%; WBC [6]: 85.9 x10_2/uL; ALP [6]: 765 IU/L; ALT [6]: 31.2 IU/L; AST [6]: 64.8 IU/L; BUN [6]: 14.6 mg/dL; CRE [6]: 0.4 mg/dL; DBIL [6]: 0.07 mg/dL; GLC [6]: 201.8 mg/dL; IP [6]: 7.9 mg/dL; K [6]: 3.7 meq/L; LDH [6]: 197.2 IU/L; Na [6]: 141.8 meq/L; PL [6]: 136 mg/dL; RALB [6]: 3.4 g/dL; TBIL [6]: 0.1 mg/dL; TC [6]: 67.2 mg/dL; TG [6]: 64.8 mg/dL; TP [6]: 5.5 g/dL; gamma-GTP [6]: 1.2 IU/L; TERMINAL_BW [7]: 257.7 g; TERMINAL_BW [8]: 310.7 g; TERMINAL_BW [9]: 375.7 g; APTT [7]: 19.5 s; Bas [7]: 0%; Eos [7]: 0.8%; Fbg [7]: 209.8 mg/dL; Ht [7]: 39.4%; Lym [7]: 78.8%; MCH [7]: 21.1 pg; MCHC [7]: 34.2%; MCV [7]: 61.7 fL; Mono [7]: 4.2%; Plat [7]: 114.2 x10_4/uL; RBC [7]: 639.6 x10_4/ul; Ret [7]: 6%; WBC [7]: 111.1 x10_2/uL; APTT [8]: 18.5 s; Bas [8]: 0%; Eos [8]: 0.8%; Fbg [8]: 226.2 mg/dL; Ht [8]: 41.6%; Lym [8]: 84%; MCH [8]: 20.2 pg; MCHC [8]: 34.6%; MCV [8]: 58.4 fL; Mono [8]: 3.6%; Neu [8]: 10.6%; Plat [8]: 116.8 x10_4/uL; RBC [8]: 712.6 x10_4/ul; Ret [8]: 4.7%; WBC [8]: 84.9 x10_2/uL; APTT [9]: 20.4 s; Bas [9]: 0%; Eos [9]: 1%; Fbg [9]: 201 mg/dL; Ht [9]: 41.7%; Lym [9]: 85%; MCH [9]: 19.1 pg; MCHC [9]: 34.7%; MCV [9]: 55.1 fL; Mono [9]: 3%; Neu [9]: 10%; Plat [9]: 101.4 x10_4/uL; RBC [9]: 757 x10_4/ul; Ret [9]: 2.4%; WBC [9]: 78.5 x10_2/uL; ALP [7]: 901.6 IU/L; ALT [7]: 35.2 IU/L; AST [7]: 65.6 IU/L; BUN [7]: 16.2 mg/dL; CRE [7]: 0.4 mg/dL; DBIL [7]: 0.082 mg/dL; GLC [7]: 217.6 mg/dL; IP [7]: 7.5 mg/dL; K [7]: 3.9 meq/L; LDH [7]: 204.2 IU/L; Na [7]: 139.4 meq/L; PL [7]: 132.8 mg/dL; RALB [7]: 3.3 g/dL; TBIL [7]: 0.1 mg/dL; TC [7]: 62 mg/dL; TG [7]: 94.4 mg/dL; TP [7]: 5.6 g/dL; gamma-GTP [7]: 1.4 IU/L; ALP [8]: 786 IU/L; ALT [8]: 33 IU/L; AST [8]: 64.6 IU/L; BUN [8]: 17 mg/dL; CRE [8]: 0.4 mg/dL; DBIL [8]: 0.086 mg/dL; GLC [8]: 207.6 mg/dL; IP [8]: 6.9 mg/dL; K [8]: 3.7 meq/L; LDH [8]: 189.2 IU/L; Na [8]: 140.2 meq/L; PL [8]: 140.4 mg/dL; RALB [8]: 3.4 g/dL; TBIL [8]: 0.1 mg/dL; TC [8]: 65 mg/dL; TG [8]: 101 mg/dL; TP [8]: 5.7 g/dL; gamma-GTP [8]: 1.6 IU/L; ALP [9]: 583.2 IU/L; ALT [9]: 29.2 IU/L; AST [9]: 62.8 IU/L; BUN [9]: 17.8 mg/dL; CRE [9]: 0.5 mg/dL; DBIL [9]: 0.078 mg/dL; GLC [9]: 198.8 mg/dL; IP [9]: 5.9 mg/dL; K [9]: 3.9 meq/L; LDH [9]: 209.8 IU/L; Na [9]: 140.4 meq/L; PL [9]: 126.6 mg/dL; RALB [9]: 3.4 g/dL; TBIL [9]: 0.1 mg/dL; TC [9]: 55.4 mg/dL; TG [9]: 98.4 mg/dL; TP [9]: 5.7 g/dL; gamma-GTP [9]: 1 IU/L

From ChEMBL document CHEMBL3885861, “Open TG-GATES”
